Structures can show the parent of a compound that is named as a salt.
The compounds below were run on KMS.12.BM cells (assay: KMS.12.BM cell viability assay). Conditions: 72 h; KMS.12.BM human myeloma cells, 3 days, Cell Titer-GLO ATP quantitation; read-out: KMS cellular IC50.
Type: cell-based
Procedure: KMS.12.BM cell line (human myeloma) was purchased from JCRB (Osaka, Japan) and maintained in RPMI with 10% FBS culture medium. To measure the cytotoxic activity of the compounds through ATP quantitation, the KMS.12.BM cells are plated in the RPMI culture medium at 5000 cells/well/per 100 μL into a 96-well polystyrene clear black tissue culture plate (Greiner-bio-one through VWR, NJ), in the presence or absence of a concentration range of test compounds. After 3 days, […] Cell Titer-GLO Luminescent (Promega, Madison, Wis.) cell culture agent is added to each well for 10 minutes at room temperature to stabilize the luminescent signal. This determines the number of viable cells in culture based on quantitation of the ATP present, which signals the presence of metabolically active cells. Luminescence is measured with the Top Count 384 (Packard Bioscience through Perkin Elmer, Boston, Mass.).
IC50 data for the Examples is presented in Table 4 as determined by Assay B1.
For `CNC(=O)c1cccc(Cn2c(C)cc3c2ccc2nnc(C)n23)c1` [Example 32, 3-[(1,7-dimethyl-6H-pyrrolo[2,3-e][1,2,4]triazolo[4,3-a]pyridin-6-yl)methyl]-N-methylbenzamide trifluoroacetate salt], the IC50 was ≤ 1 µM.
With `CCNC(=O)c1cccc(Cn2c(C)cc3c2ccc2nnc(C)n23)c1` [Example 33, 3-[(1,7-dimethyl-6H-pyrrolo[2,3-e][1,2,4]triazolo[4,3-a]pyridin-6-yl)methyl]-N-ethylbenzamide trifluoroacetate salt] the IC50 was ≤ 1 µM.
In the case of `COc1ccc(Cn2c(C)cc3c2ccc2nnc(C)n23)cc1` [Example 34, 6-(4-methoxybenzyl)-1,7-dimethyl-6H-pyrrolo[2,3-e][1,2,4]triazolo[4,3-a]pyridine], the IC50 is reported as ≤ 1 µM.
For `Cc1cc2c(ccc3nnc(C)n32)n1Cc1ccc(O)cc1` [Example 35, 4-[(1,7-dimethyl-6H-pyrrolo[2,3-e][1,2,4]triazolo[4,3-a]pyridin-6-yl)methyl]phenol], the IC50 was ≤ 1 µM.
`Cc1cc2c(ccc3nnc(C)n32)n1Cc1cccc(CNCCO)c1` [Example 36, 2-({3-[(1,7-dimethyl-6H-pyrrolo[2,3-e][1,2,4]triazolo[4,3-a]pyridin-6-yl)methyl]benzyl}amino)ethanol] was tested, and the IC50 was ≤ 1 µM.
In the case of `Cc1cc2c(ccc3nnc(C)n32)n1Cc1cccc(CN(C)CCO)c1` [Example 37, 2-[{3-[(1,7-dimethyl-6H-pyrrolo[2,3-e][1,2,4]triazolo[4,3-a]pyridin-6-yl)methyl]benzyl}(methyl)amino]ethanol], the IC50 is reported as ≤ 1 µM.
With `Cc1cc2c(ccc3nnc(C)n32)n1Cc1cccc(CN2CCOCC2)c1` [Example 38, 1,7-dimethyl-6-[3-(morpholin-4-ylmethyl)benzyl]-6H-pyrrolo[2,3-e][1,2,4]triazolo[4,3-a]pyridine] the IC50 was ≤ 1 µM.
With `Cc1cc2c(ccc3nnc(C)n32)n1Cc1cccc(CN[C@H]2C[C@H](O)C2)c1` [Example 39, (1r,3r)-3-((3-((1,7-dimethyl-6H-pyrrolo[2,3-e][1,2,4]triazolo[4,3-a]pyridin-6-yl)methyl)benzyl)amino)cyclobutanol] the IC50 was ≤ 1 µM.
`Cc1cc2c(ccc3nnc(C)n32)n1Cc1cccc(CN(C)C)c1` [Example 40, 1-{3-[(1,7-dimethyl-6H-pyrrolo[2,3-e][1,2,4]triazolo[4,3-a]pyridin-6-yl)methyl]phenyl}-N,N-dimethylmethanamine] was tested, and the IC50 was ≤ 1 µM.
In the case of `CNCc1cccc(Cn2c(C)cc3c2ccc2nnc(C)n23)c1` [Example 41, 1-{3-[(1,7-dimethyl-6H-pyrrolo[2,3-e][1,2,4]triazolo[4,3-a]pyridin-6-yl)methyl]phenyl}-N-methylmethanamine], the IC50 is reported as ≤ 1 µM.
`CCNCc1cccc(Cn2c(C)cc3c2ccc2nnc(C)n23)c1` [Example 42, N-{3-[(1,7-dimethyl-6H-pyrrolo[2,3-e][1,2,4]triazolo[4,3-a]pyridin-6-yl)methyl]benzyl}ethanamine] was tested, and the IC50 was ≤ 1 µM.
`CCNC(=O)Nc1cccc(Cn2c(C)cc3c2ccc2nnc(C)n23)c1` [Example 43, N-{3-[(1,7-dimethyl-6H-pyrrolo[2,3-e][1,2,4]triazolo[4,3-a]pyridin-6-yl)methyl]phenyl}-N′-ethylurea trifluoroacetate salt] gave an IC50 of 1 to 10 µM.
`Cc1cc2c(ccc3nnc(C)n32)n1Cc1cccc(NC(N)=O)c1` [Example 44, N-{3-[(1,7-dimethyl-6H-pyrrolo[2,3-e][1,2,4]triazolo[4,3-a]pyridin-6-yl)methyl]phenyl}urea] showed an IC50 of 1 to 10 µM.
With `Cc1cc2c(ccc3nnc(C)n32)n1Cc1cccc(CN2CCCC2)c1` [Example 45, 1,7-dimethyl-6-[3-(pyrrolidin-1-ylmethyl)benzyl]-6H-pyrrolo[2,3-e][1,2,4]triazolo[4,3-a]pyridine] the IC50 was ≤ 1 µM.
With `Cc1cc2c(ccc3nnc(C)n32)n1Cc1cccc(CN2CCCCC2)c1` [Example 46, 1,7-dimethyl-6-[3-(piperidin-1-ylmethyl)benzyl]-6H-pyrrolo[2,3-e][1,2,4]triazolo[4,3-a]pyridine] the IC50 was ≤ 1 µM.
For `Cc1cc2c(ccc3nnc(C)n32)n1Cc1cccc(CN2CCN(C)CC2)c1` [Example 47, 1,7-dimethyl-6-{3-[(4-methylpiperazin-1-yl)methyl]benzyl}-6H-pyrrolo[2,3-e][1,2,4]triazolo[4,3-a]pyridine], the IC50 was 1 to 10 µM.
For `Cc1cc2c(ccc3nnc(C)n32)n1Cc1cccc(CN2CCNCC2)c1` [Example 48, 1,7-dimethyl-6-[3-(piperazin-1-ylmethyl)benzyl]-6H-pyrrolo[2,3-e][1,2,4]triazolo[4,3-a]pyridine], the IC50 was 1 to 10 µM.
In the case of `Cc1cc2c(ccc3nnc(C)n32)n1Cc1ccc(CO)cc1` [Example 49, {4-[(1,7-dimethyl-6H-pyrrolo[2,3-e][1,2,4]triazolo[4,3-a]pyridin-6-yl)methyl]phenyl}methanol], the IC50 is reported as ≤ 1 µM.
`Cc1cc2c(ccc3nnc(C)n32)n1Cc1ccc(CN2CCC2)cc1` [Example 50, 6-[4-(azetidin-1-ylmethyl)benzyl]-1,7-dimethyl-6H-pyrrolo[2,3-e][1,2,4]triazolo[4,3-a]pyridine] was tested, and the IC50 was 1 to 10 µM.
With `Cc1cc2c(ccc3nnc(C)n32)n1Cc1ccc(CN2CC(O)C2)cc1` [Example 52, 1-{4-[(1,7-dimethyl-6H-pyrrolo[2,3-e][1,2,4]triazolo[4,3-a]pyridin-6-yl)methyl]benzyl}azetidin-3-ol] the IC50 was 1 to 10 µM.
For `Cc1cc2c(ccc3nnc(C)n32)n1Cc1ccc(CN(C)C)cc1` [Example 53, 1-{4-[(1,7-dimethyl-6H-pyrrolo[2,3-e][1,2,4]triazolo[4,3-a]pyridin-6-yl)methyl]phenyl}-N,N-dimethylmethanamine], the IC50 was 1 to 10 µM.
With `COC1CN(Cc2cccc(Cn3c(C)cc4c3ccc3nnc(C)n34)c2)C1` [Example 54, 6-{3-[(3-methoxyazetidin-1-yl)methyl]benzyl}-1,7-dimethyl-6H-pyrrolo[2,3-e][1,2,4]triazolo[4,3-a]pyridine] the IC50 was ≤ 1 µM.
With `Cc1nc2c(ccc3nnc(C)n32)n1Cc1ccccc1` [Example 55, 3-benzyl-2,8-dimethyl-3H-imidazo[4,5-e][1,2,4]triazolo[4,3-a]pyridine] the IC50 was ≤ 1 µM.
In the case of `Cc1nnc2ccc3c(cc(CO)n3Cc3ccccc3)n12` [Example 56, (6-benzyl-1-methyl-6H-pyrrolo[2,3-e][1,2,4]triazolo[4,3-a]pyridin-7-yl)methanol], the IC50 is reported as 1 to 10 µM.
With `Cc1nnc2ccc3c(cc(Cn4ccnc4)n3Cc3ccccc3)n12` [Example 57, 6-benzyl-7-(1H-imidazol-1-ylmethyl)-1-methyl-6H-pyrrolo[2,3-e][1,2,4]triazolo[4,3-a]pyridine] the IC50 was 1 to 10 µM.
With `Cc1nnc2ccc3c(cc(C(N)=O)n3Cc3ccccc3)n12` [Example 58, 6-benzyl-1-methyl-6H-pyrrolo[2,3-e][1,2,4]triazolo[4,3-a]pyridine-7-carboxamide] the IC50 was ≤ 1 µM.
For `CCNC(=O)c1cc2c(ccc3nnc(C)n32)n1Cc1ccccc1` [Example 59, 6-benzyl-N-ethyl-1-methyl-6H-pyrrolo[2,3-e][1,2,4]triazolo[4,3-a]pyridine-7-carboxamide], the IC50 was ≤ 1 µM.
With `Cc1nnc2ccc3c(cc(C(=O)N4CC(C#N)C4)n3Cc3ccccc3)n12` [Example 60, 1-[(6-benzyl-1-methyl-6H-pyrrolo[2,3-e][1,2,4]triazolo[4,3-a]pyridin-7-yl)carbonyl]azetidine-3-carbonitrile] the IC50 was ≤ 1 µM.
`Cc1nnc2ccc3c(cc(CCO)n3Cc3ccccc3)n12` [Example 61, 2-(6-benzyl-1-methyl-6H-pyrrolo[2,3-e][1,2,4]triazolo[4,3-a]pyridin-7-yl)ethanol] showed an IC50 of 1 to 10 µM.
With `Cc1nnc2ccc3c(cc(-c4ccn[nH]4)n3Cc3ccccc3)n12` [Example 62, 6-benzyl-1-methyl-7-(1H-pyrazol-5-yl)-6H-pyrrolo[2,3-e][1,2,4]triazolo[4,3-a]pyridine] the IC50 was ≤ 1 µM.
For `Cc1nnc2ccc3c(cc(-c4cn[nH]c4)n3Cc3ccccc3)n12` [Example 63, 6-benzyl-1-methyl-7-(1H-pyrazol-4-yl)-6H-pyrrolo[2,3-e][1,2,4]triazolo[4,3-a]pyridine], the IC50 was ≤ 1 µM.
For `Cc1nnc2ccc3c(cc(-c4cnn(CC#N)c4)n3Cc3ccccc3)n12` [Example 64, [4-(6-benzyl-1-methyl-6H-pyrrolo[2,3-e][1,2,4]triazolo[4,3-a]pyridin-7-yl)-1H-pyrazol-1-yl]acetonitrile], the IC50 was ≤ 1 µM.
In the case of `Cc1nnc2ccc3c(cc(-c4ccn(CC#N)n4)n3Cc3ccccc3)n12` [Example 65, [3-(6-benzyl-1-methyl-6H-pyrrolo[2,3-e][1,2,4]triazolo[4,3-a]pyridin-7-yl)-1H-pyrazol-1-yl]acetonitrile], the IC50 is reported as ≤ 1 µM.
`Cc1nnc2ccc3c(cc(-c4cscn4)n3Cc3ccccc3)n12` [Example 66, 6-benzyl-1-methyl-7-(1,3-thiazol-4-yl)-6H-pyrrolo[2,3-e][1,2,4]triazolo[4,3-a]pyridine] was tested, and the IC50 was ≤ 1 µM.
In the case of `Cc1nnc2ccc3c(cc(-c4nccs4)n3Cc3ccccc3)n12` [Example 67, 6-benzyl-1-methyl-7-(1,3-thiazol-2-yl)-6H-pyrrolo[2,3-e][1,2,4]triazolo[4,3-a]pyridine], the IC50 is reported as ≤ 1 µM.
In the case of `Cc1nnc2ccc3c(cc(-c4ccccn4)n3Cc3ccccc3)n12` [Example 68, 6-benzyl-1-methyl-7-pyridin-2-yl-6H-pyrrolo[2,3-e][1,2,4]triazolo[4,3-a]pyridine], the IC50 is reported as ≤ 1 µM.
For `Cc1nnc2ccc3c(cc(-c4cncs4)n3Cc3ccccc3)n12` [Example 69, 6-benzyl-1-methyl-7-(1,3-thiazol-5-yl)-6H-pyrrolo[2,3-e][1,2,4]triazolo[4,3-a]pyridine], the IC50 was ≤ 1 µM.
